# Assay results as given in publication PMC10329973 (Clinical pharmacology in drug development, 2023).
# Key:
# [1] = Single ascending dose study NP10679-101, plasma pharmacokinetics; format: in vivo, human; conditions: for half-life: healthy volunteers, SAD and MAD studies overall; for Vd: SAD
# [2] = Multiple ascending dose study NP10679-102, plasma pharmacokinetics; format: in vivo; conditions: human, iv; for Cmax / Tmax: MAD; for half-life: T 1/2, MAD
# [3] = test system: GABAergic receptors; conditions: cited from earlier work
# [4] = test system: pre-clinical models; conditions: cited from earlier work
# [5] = test system: healthy adult volunteers; assay: Single ascending dose study NP10679-101, safety and tolerability; format: in vivo
# [6] = mouse; cited from earlier work
# [7] = In vitro metabolic stability, hepatic microsomes; format: in vitro ADME, mice, rats, dogs, and humans; conditions: mouse, rat, dog, human, liver microsomes
# [8] = 25 mg, 25 mg IV once daily, day 1
# [9] = 25 mg, 25 mg IV once daily, day 2
# [10] = 25 mg, 25 mg IV once daily, day 3
# [11] = 25 mg, 25 mg IV once daily, day 4
# [12] = 25 mg, 25 mg IV once daily, day 5
# [13] = 50 mg, 50 mg IV once daily, day 1
# [14] = 50 mg, 50 mg IV once daily, day 2
# [15] = 50 mg, 50 mg IV once daily, day 3
# [16] = 50 mg, 50 mg IV once daily, day 4
# [17] = 50 mg, 50 mg IV once daily, day 5
# [18] = 100 mg, 100 mg IV once daily, day 1
# [19] = 100 mg, 100 mg IV once daily, day 2
# [20] = 100 mg, 100 mg IV once daily, day 3
# [21] = 100 mg, 100 mg IV once daily, day 4
# [22] = 100 mg, 100 mg IV once daily, day 5
structure (smiles),measurement,setting,value
"O=C1CCc2cc(OC[C@H](O)CN3CCN(c4ccc(C(F)(F)F)cc4)CC3)ccc2N1 [NP10679, (R)-6-(2-Hydroxy-3-(4-(4-(trifluoromethyl)phenyl)piperazin-1-yl)propoxy)-3,4-dihydroquinolin-2(1H)-one]",half-life,[1],~ 20 h
same,clearance,"[1]; human, plasma, intravenous",163 to 200 mL/min
same,half-life,"[1]; human, plasma, intravenous, half-life",20 h
same,Vd,"[1]; human, plasma, intravenous, volume of distribution",> 221 L
same,AUC(0-inf),"[1]; human, plasma, iv, 5 mg",553 ± 204 ng·h/mL
same,AUC(0-t),"[1]; human, plasma, iv, 5 mg",335 ± 46 ng·h/mL
same,Cmax,"[1]; human, plasma, iv, 5 mg",27 ± 15 ng/mL
same,clearance,"[1]; human, plasma, iv, 5 mg",163 mL/min
same,Vd,"[1]; human, plasma, iv, 5 mg, VSS, single IV infusion 5 mg, mean ± SD",435 ± 178 L
same,Vd,"[1]; human, plasma, iv, 5 mg, Vd, area, mean, single IV infusion 5 mg",396 L
same,AUC(0-inf),"[1]; human, plasma, iv, 15 mg",1280 ± 227 ng·h/mL
same,AUC(0-t),"[1]; human, plasma, iv, 15 mg",1140 ± 233 ng·h/mL
same,Cmax,"[1]; human, plasma, iv, 15 mg",99 ± 67 ng/mL
same,clearance,"[1]; human, plasma, iv, 15 mg",200 mL/min
same,Vd,"[1]; human, plasma, iv, 15 mg, VSS, single IV infusion 15 mg, mean ± SD",306 ± 41 L
same,Vd,"[1]; human, plasma, iv, 15 mg, Vd, area, mean, single IV infusion 15 mg",346 L
same,AUC(0-inf),"[1]; human, plasma, iv, 50 mg",4680 ± 797 ng·h/mL
same,AUC(0-t),"[1]; human, plasma, iv, 50 mg",3980 ± 544 ng·h/mL
same,Cmax,"[1]; human, plasma, iv, 50 mg",415 ± 107 ng/mL
same,clearance,"[1]; human, plasma, iv, 50 mg",183 mL/min
same,Vd,"[1]; human, plasma, iv, 50 mg, VSS, single IV infusion 50 mg, mean ± SD",255 ± 20 L
same,Vd,"[1]; human, plasma, iv, 50 mg, Vd, area, mean, single IV infusion 50 mg",286 L
same,AUC(0-inf),"[1]; human, plasma, iv, 100 mg",9860 ± 3220 ng·h/mL
same,AUC(0-t),"[1]; human, plasma, iv, 100 mg",9370 ± 3090 ng·h/mL
same,Cmax,"[1]; human, plasma, iv, 100 mg",746 ± 223 ng/mL
same,clearance,"[1]; human, plasma, iv, 100 mg",183 mL/min
same,Vd,"[1]; human, plasma, iv, 100 mg, VSS, single IV infusion 100 mg, mean ± SD",259 ± 57 L
same,Vd,"[1]; human, plasma, iv, 100 mg, Vd, area, mean, single IV infusion 100 mg",317 L
same,AUC(0-inf),"[1]; human, plasma, iv, 150 mg",13900 ± 1280 ng·h/mL
same,AUC(0-t),"[1]; human, plasma, iv, 150 mg",13600 ± 1220 ng·h/mL
same,Cmax,"[1]; human, plasma, iv, 150 mg",954 ± 370 ng/mL
same,clearance,"[1]; human, plasma, iv, 150 mg",183 mL/min
same,Vd,"[1]; human, plasma, iv, 150 mg, VSS, single IV infusion 150 mg, mean ± SD",250 ± 23 L
same,Vd,"[1]; human, plasma, iv, 150 mg, Vd, area, mean, single IV infusion 150 mg",286 L
same,AUC(0-inf),"[1]; human, plasma, iv, 200 mg",20200 ± 4600 ng·h/mL
same,AUC(0-t),"[1]; human, plasma, iv, 200 mg",19700 ± 4370 ng·h/mL
same,Cmax,"[1]; human, plasma, iv, 200 mg",2070 ± 798 ng/mL
same,clearance,"[1]; human, plasma, iv, 200 mg",167 mL/min
same,Vd,"[1]; human, plasma, iv, 200 mg, VSS, single IV infusion 200 mg, mean ± SD",221 ± 34 L
same,Vd,"[1]; human, plasma, iv, 200 mg, Vd, area, mean, single IV infusion 200 mg",245 L
same,AUC(0-t),"[2]; 25 mg, AUC 0–24, MAD, 25 mg IV once daily, day 1",1470 ± 186 ng·h/mL
same,AUC(0-t),"[2]; 25 mg, AUC 0–24, MAD, 25 mg IV once daily, day 2",1920 ± 305 ng·h/mL
same,AUC(0-t),"[2]; 25 mg, AUC 0–24, MAD, 25 mg IV once daily, day 3",2090 ± 303 ng·h/mL
same,AUC(0-t),"[2]; 25 mg, AUC 0–24, MAD, 25 mg IV once daily, day 4",2170 ± 397 ng·h/mL
same,AUC(0-t),"[2]; 25 mg, AUC 0–24, MAD, 25 mg IV once daily, day 5",2260 ± 478 ng·h/mL
same,AUC(0-t),"[2]; 25 mg, AUC 0–96, MAD, 25 mg IV once daily, day 5",3880 ± 1140 ng·h/mL
same,Cmax,[2]; [8],208 ± 72 ng/mL
same,Cmax,[2]; [9],211 ± 57 ng/mL
same,Cmax,[2]; [10],207 ± 35 ng/mL
same,Cmax,[2]; [11],250 ± 34 ng/mL
same,Cmax,[2]; [12],213 ± 26 ng/mL
same,half-life,[2]; [8],15 ± 3 h
same,half-life,[2]; [9],17 ± 2 h
same,half-life,[2]; [10],16 ± 3 h
same,half-life,[2]; [11],19 ± 5 h
same,half-life,[2]; [12],36 ± 15 h
same,Tmax,[2]; [8],0.5 h
same,Tmax,[2]; [9],0.9 ± 0.8 h
same,Tmax,[2]; [10],0.8 ± 0.4 h
same,Tmax,[2]; [11],0.5 h
same,Tmax,[2]; [12],0.5 h
same,AUC(0-t),"[2]; 50 mg, AUC 0–24, MAD, 50 mg IV once daily, day 1",2650 ± 283 ng·h/mL
same,AUC(0-t),"[2]; 50 mg, AUC 0–24, MAD, 50 mg IV once daily, day 2",3300 ± 479 ng·h/mL
same,AUC(0-t),"[2]; 50 mg, AUC 0–24, MAD, 50 mg IV once daily, day 3",3890 ± 424 ng·h/mL
same,AUC(0-t),"[2]; 50 mg, AUC 0–24, MAD, 50 mg IV once daily, day 4",4110 ± 485 ng·h/mL
same,AUC(0-t),"[2]; 50 mg, AUC 0–24, MAD, 50 mg IV once daily, day 5",4290 ± 500 ng·h/mL
same,AUC(0-t),"[2]; 50 mg, AUC 0–96, MAD, 50 mg IV once daily, day 5",6960 ± 1170 ng·h/mL
same,Cmax,[2]; [13],376 ± 99 ng/mL
same,Cmax,[2]; [14],276 ± 60 ng/mL
same,Cmax,[2]; [15],335 ± 73 ng/mL
same,Cmax,[2]; [16],389 ± 116 ng/mL
same,Cmax,[2]; [17],394 ± 72 ng/mL
same,half-life,[2]; [13],18 ± 4 h
same,half-life,[2]; [14],18 ± 3 h
same,half-life,[2]; [15],26 ± 16 h
same,half-life,[2]; [16],16 ± 1 h
same,half-life,[2]; [17],21 ± 3 h
same,Tmax,[2]; [13],0.8 ± 0.8 h
same,Tmax,[2]; [14],1 ± 0.4 h
same,Tmax,[2]; [15],0.8 ± 0.5 h
same,Tmax,[2]; [16],0.8 ± 0.5 h
same,Tmax,[2]; [17],0.7 ± 0.4 h
same,AUC(0-t),"[2]; 100 mg, AUC 0–24, MAD, 100 mg IV once daily, day 1",5630 ± 625 ng·h/mL
same,AUC(0-t),"[2]; 100 mg, AUC 0–24, MAD, 100 mg IV once daily, day 2",7320 ± 279 ng·h/mL
same,AUC(0-t),"[2]; 100 mg, AUC 0–24, MAD, 100 mg IV once daily, day 3",8710 ± 458 ng·h/mL
same,AUC(0-t),"[2]; 100 mg, AUC 0–24, MAD, 100 mg IV once daily, day 4",9510 ± 1200 ng·h/mL
same,AUC(0-t),"[2]; 100 mg, AUC 0–24, MAD, 100 mg IV once daily, day 5",8980 ± 376 ng·h/mL
same,AUC(0-t),"[2]; 100 mg, AUC 0–96, MAD, 100 mg IV once daily, day 5",13900 ± 962 ng·h/mL
same,Cmax,[2]; [18],1240 ± 1150 ng/mL
same,Cmax,[2]; [19],570 ± 29 ng/mL
same,Cmax,[2]; [20],812 ± 190 ng/mL
same,Cmax,[2]; [21],873 ± 236 ng/mL
same,Cmax,[2]; [22],1080 ± 295 ng/mL
same,half-life,[2]; [18],22 ± 5 h
same,half-life,[2]; [19],22 ± 5 h
same,half-life,[2]; [20],22 ± 5 h
same,half-life,[2]; [21],34 ± 28 h
same,half-life,[2]; [22],13 ± 5 h
same,Tmax,[2]; [18],0.5 h
same,Tmax,[2]; [19],0.8 ± 0.3 h
same,Tmax,[2]; [20],0.5 h
same,Tmax,[2]; [21],0.6 ± 0.3 h
same,Tmax,[2]; [22],0.5 h
same,activity at GABAergic receptors,[3],does not have activity
same,somnolence in pre-clinical models,[4],leads to somnolence at doses above those necessary to achieve efficacy
same,"dissociative symptoms or cognitive impairment (CADSS, DSST)",[5]; SAD,no evidence
same,serious adverse events (SAEs),[5]; SAD,No serious adverse events
same,vital signs or ECGs,[5]; SAD,no clinically significant changes
same,"changes in mean values of HDRS, MMSE, SBQ-R, GAD-7 and CADSS",[5]; SAD study,no detectable changes
same,subjects reaching a level 3 score on the MOAA/S,"[5]; SAD, 200 mg",no subject
same,subjects with conjunctival and scleral hyperemia,"[5]; SAD, 200 mg",3 of 6
same,subjects presenting with somnolence,"[5]; SAD, at doses of 50 mg - 200 mg",5 of 6
same,subjects presenting with somnolence,"[5]; SAD, at each of doses 5 and 15 mg",One of 6
same,blood pressure (both systolic and diastolic),"[5]; SAD, highest two doses",non-clinically significant lower blood pressure
same,subjects describing intrusive thoughts,"[5]; SAD, single 150 mg dose",one subject
same,Bond-Lader VAS scale,"[5]; SAD, starting at 50 mg through 200 mg",moderate increases
same,oral availability F%,[6],76%
same,half-life,[7],> 2 h
